Data reported in ChEMBL document CHEMBL6103606, “AMP-Activated Protein Kinase Activators as Therapeutic Targets To Treat Heart Failure and Diseases That Can Benefit from Improved Muscular Performance” (ACS Med Chem Lett, 2025).

Key:
[1] = target: AMPK alpha2/beta2/gamma3 (Homo sapiens) (UniProt P54646+O43741+Q9UGI9); assay: Activation of human AMPK alpha2/beta2/gamma3 transiently transfected in HEK293 cells assessed as phosphorylation at […]Thr172 by measuring asymptotic max incubated for 20 mins by AlphaLISA assay relative to control; assay type: cell-based
AMPK alpha2/beta2/gamma3 = AMPK alpha2/beta2/gamma3 (Homo sapiens, UniProt O43741+P54646+Q9UGI9); assay: Activation of human AMPK (alpha2/beta2/gamma3) transiently transfected in HEK293 cells assessed as phosphorylation at […]Thr172 incubated for 20 mins by AlphaLISA assay; assay type: cell-based
AMPK alpha2/beta2/gamma3, sequence (P54646 whole entry): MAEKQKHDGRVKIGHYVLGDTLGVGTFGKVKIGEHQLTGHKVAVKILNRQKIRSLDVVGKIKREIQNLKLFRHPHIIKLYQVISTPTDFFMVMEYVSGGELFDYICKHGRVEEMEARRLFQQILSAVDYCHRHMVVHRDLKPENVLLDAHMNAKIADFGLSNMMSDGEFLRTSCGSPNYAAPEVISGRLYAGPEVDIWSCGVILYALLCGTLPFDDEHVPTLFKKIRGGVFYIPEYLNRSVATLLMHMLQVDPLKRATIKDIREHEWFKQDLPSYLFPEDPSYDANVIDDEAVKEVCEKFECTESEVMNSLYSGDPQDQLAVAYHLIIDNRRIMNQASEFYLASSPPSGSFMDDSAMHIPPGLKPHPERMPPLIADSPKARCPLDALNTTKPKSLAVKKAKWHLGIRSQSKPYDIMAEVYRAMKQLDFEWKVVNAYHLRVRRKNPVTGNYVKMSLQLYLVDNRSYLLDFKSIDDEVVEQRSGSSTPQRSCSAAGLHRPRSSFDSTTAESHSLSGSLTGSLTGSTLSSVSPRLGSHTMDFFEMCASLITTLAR
AMPK alpha2/beta2/gamma3, sequence (O43741 whole entry): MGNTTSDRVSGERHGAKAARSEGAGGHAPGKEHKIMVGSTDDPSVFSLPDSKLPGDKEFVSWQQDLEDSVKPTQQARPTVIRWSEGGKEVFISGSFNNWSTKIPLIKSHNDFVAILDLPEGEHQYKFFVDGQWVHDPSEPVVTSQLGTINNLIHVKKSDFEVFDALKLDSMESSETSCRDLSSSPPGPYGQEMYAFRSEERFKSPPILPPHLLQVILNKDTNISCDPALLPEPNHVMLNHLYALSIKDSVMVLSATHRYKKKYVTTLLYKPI
AMPK alpha2/beta2/gamma3, sequence (Q9UGI9 whole entry): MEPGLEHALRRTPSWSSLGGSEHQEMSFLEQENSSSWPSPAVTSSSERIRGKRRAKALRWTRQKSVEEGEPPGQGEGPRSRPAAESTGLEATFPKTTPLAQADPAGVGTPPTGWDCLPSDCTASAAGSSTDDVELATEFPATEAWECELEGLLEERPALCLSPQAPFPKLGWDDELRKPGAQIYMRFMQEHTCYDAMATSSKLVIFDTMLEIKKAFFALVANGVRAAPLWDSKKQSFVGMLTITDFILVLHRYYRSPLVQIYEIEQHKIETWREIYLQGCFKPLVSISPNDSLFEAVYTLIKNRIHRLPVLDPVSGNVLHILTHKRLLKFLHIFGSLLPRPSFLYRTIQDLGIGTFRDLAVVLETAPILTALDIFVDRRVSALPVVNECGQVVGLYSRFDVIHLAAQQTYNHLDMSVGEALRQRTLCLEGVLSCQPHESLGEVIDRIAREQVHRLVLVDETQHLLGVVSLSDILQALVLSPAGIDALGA

AMPK alpha2/beta2/gamma3 (Homo sapiens), sequence (O43741 whole entry, looked up): as the sequence (O43741 whole entry) above
AMPK alpha2/beta2/gamma3 (Homo sapiens), sequence (P54646 whole entry, looked up): as the sequence (P54646 whole entry) above
AMPK alpha2/beta2/gamma3 (Homo sapiens), sequence (Q9UGI9 whole entry, looked up): as the sequence (Q9UGI9 whole entry) above

| SMILES | max activation ([1]; filed as activator) | max activation [1] | EC50 (AMPK alpha2/beta2/gamma3) |
| --- | --- | --- | --- |
| Cn1cc(F)c(N2C[C@](C)(c3cccc(Cl)c3F)c3c(cnc(NC4CN(C(=O)C(O)CC(F)(F)F)C4)c3F)C2=O)n1 (some centres not stated) | 100% | – | – |
| CC1(c2ccc(F)c(Cl)c2F)CN(c2ccc(CO)cn2)C(=O)c2cnc(NC3CN(C(=O)N4C[C@@H]5C[C@H]4CO5)C3)c(F)c21 (some centres not stated) | 113% | – | – |
| C[C@]1(c2cccc(Cl)c2F)CN(c2cc(OC(F)F)ccn2)C(=O)c2cnc(NC3CN(C(=O)[C@@H]4C[C@@H]4F)C3)c(F)c21 | – | 30.9% | – |
| C[C@]1(c2cccc(Cl)c2F)CN(c2ccc([C@@H]3COCCN3)cn2)C(=O)c2cnc(NC3CN(C(=O)c4cccnn4)C3)c(F)c21 | 120% | – | – |
| CC1(c2cccc(Cl)c2F)CN(c2ncccc2F)C(=O)c2cnc(NC3CN(C(=O)N4CCC[C@@H]4CO)C3)nc21 (some centres not stated) | 106% | – | – |
| Cn1cc(F)c(N2CC(C)(c3cccc(Cl)c3F)c3c(cnc(N[C@@H]4CCN(C(=O)N5C[C@@H]6C[C@H]5CO6)C4)c3F)C2=O)n1 (some centres not stated) | 52.2% | – | – |
| Cn1cc(F)c(N2C[C@](C)(c3cccc(Cl)c3F)c3c(cnc(NC4CN(C(=O)CC(F)(F)F)C4)c3F)C2=O)n1 | 90% | – | – |
| C[C@]1(c2cccc(Cl)c2F)CN(c2ncccc2F)C(=O)c2cnc(NC3CN(C(=O)C4(O)CC4)C3)c(F)c21 | 112% | – | – |
| CNCc1ccc(N2C[C@](C)(c3cccc(Cl)c3F)c3nc(NC4CN(C(=O)[C@@H]5C[C@@H]5F)C4)ncc3C2=O)cc1F | 154% | – | 2500 nM |

More lines, now with the values ahead:

| max activation ([1]; filed as activator) | max activation [1] | EC50 (AMPK alpha2/beta2/gamma3) | SMILES |
| --- | --- | --- | --- |
| 81.7% | – | – | Cn1cc(F)c(N2C[C@](C)(c3cccc(Cl)c3F)c3c(cnc(NC4CN(C(=O)[C@@H]5C[C@@H]5F)C4)c3F)C2=O)n1 |
| 85.5% | – | – | Cn1cc(F)c(N2C[C@](C)(c3cccc(Cl)c3F)c3c(cnc(NC4CN(C(=O)C5CCC(F)(F)CN5)C4)c3F)C2=O)n1 (some centres not stated) |
| 119% | – | 27.2 nM | Cn1cc(F)c(N2CC(C)(c3cccc(Cl)c3F)c3c(cnc(NC4CN([C@H]5CCCNC5=O)C4)c3F)C2=O)n1 (some centres not stated) |
| 139% | – | – | CN1CCCC(N2CC(Nc3ncc4c(c3F)[C@@](C)(c3cccc(Cl)c3F)CN(c3nn(C)cc3F)C4=O)C2)C1=O (some centres not stated) |
| 89.6% | – | 21.3 nM | Cn1cc(F)c(N2C[C@](C)(c3cccc(Cl)c3F)c3c(cnc(NC4CN(C(=O)[C@@](C)(O)C5CC5)C4)c3F)C2=O)n1 |
